Measured values: PubChem BioAssay (NCI)
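How tested: cells in 96-well plates exposed to compound for 48 hours at five concentrations. Abbreviation: GI50, concentration required for 50% inhibition of growth. Definition used: TGI = concentration required for complete inhibition of growth.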

Columns and labels:
Test in all cases: DTP human tumour cell line panel, 48 h
SF-268 CNS = test system: SF-268 CNS
ACHN renal = test system: ACHN renal
U251 CNS = test system: U251 CNS
A549 NSCLC = test system: A549 NSCLC
786-0 renal = test system: 786-0 renal
M14 melanoma = test system: M14 melanoma
COLO 205 colon = test system: COLO 205 colon
SF-539 CNS = test system: SF-539 CNS
HOP-92 NSCLC = test system: HOP-92 NSCLC
RPMI-8226 leukemia = test system: RPMI-8226 leukemia

Compound	GI50 (SF-268 CNS) [µM]	TGI (SF-268 CNS) [µM]	GI50 (ACHN renal) [µM]	TGI (ACHN renal) [µM]	GI50 (U251 CNS) [µM]	TGI (U251 CNS) [µM]	GI50 (A549 NSCLC) [µM]	TGI (A549 NSCLC) [µM]	GI50 (786-0 renal) [µM]	TGI (786-0 renal) [µM]	GI50 (M14 melanoma) [µM]	TGI (M14 melanoma) [µM]	GI50 (COLO 205 colon) [µM]	TGI (COLO 205 colon) [µM]	GI50 (SF-539 CNS) [µM]	TGI (SF-539 CNS) [µM]	GI50 (HOP-92 NSCLC) [µM]	TGI (HOP-92 NSCLC) [µM]	GI50 (RPMI-8226 leukemia) [µM]	TGI (RPMI-8226 leukemia) [µM]
O=c1[nH]cc(CO)c(=O)[nH]1	> 100	> 100	> 100	> 100	> 100	> 100	> 100	> 100	> 100	> 100	> 100	> 100	> 100	> 100	> 100	> 100	> 100	> 100	–	–
CC(=O)NC1CCCN(O)C(=O)/C=C(/C)CCOC(=O)C(NC(C)=O)CCCN(O)C(=O)/C=C(/C)CCOC(=O)C(NC(C)=O)CCCN(O)C(=O)/C=C(/C)CCOC1=O.[Fe] (stereo not given)	> 100	> 100	> 100	> 100	> 100	> 100	> 100	> 100	> 100	> 100	> 100	> 100	> 100	> 100	> 100	> 100	> 100	> 100	> 100	> 100
Cc1cc(NS(=O)(=O)c2ccc(NC(=O)COc3ccc(-c4cc5ccccc5[nH]4)cc3)cc2)no1	2.33	7.74	2.44	6.9	1.86	6.74	2.18	6.39	1.93	3.65	1.71	4.32	1.78	3.27	1.98	4.61	1.3	3.83	2.87	> 100
CCCCCCCCn1ccc2cc(NC(=O)Cn3cc(CN4CCC(C)CC4)nn3)ccc21	1.82	3.53	1.63	2.99	1.7	3.15	1.74	3.4	1.48	2.81	1.63	3.08	1.82	3.46	1.7	3.08	1.16	2.57	2.06	4.82
Cc1cc(C(=O)N2CCN(C)CC2)c2c(=O)n(-c3ccccc3)c(=O)n(CC(O)CN3CCN(c4ncccn4)CC3)c2n1 (stereo not given)	> 100	> 100	> 100	> 100	> 100	> 100	–	–	> 100	> 100	> 100	> 100	> 100	> 100	> 100	> 100	> 100	> 100	> 100	> 100
Cc1ccc2nc3sc(=O)sc3nc2c1	–	30.1	–	28.5	–	30.8	–	29.6	–	28.8	–	33.5	–	27.8	–	35.1	–	28.9	–	59.1
O=c1c(-c2ccc3c(c2)OCO3)coc2c(CO)c(O)ccc12	1.96	4.41	1.82	5.34	1.92	5.03	6.8	30.9	1.97	4.6	3.2	14.8	20.9	45.5	2.28	6.46	2.02	4.86	3.64	53.6
Cc1ccn2c(-c3csc(Nc4cccc(O)c4)n3)c(C)nc2c1	0.785	42.6	0.812	> 100	0.681	10.3	0.896	26.1	1.8	8.81	0.359	18	11.8	26.3	0.498	3.75	1.75	22.7	0.422	5.02
COc1ccc(-c2nnc(Nc3nc(O)c(C4=c5cc(OC(F)(F)F)ccc5=NC4=O)s3)o2)cc1	> 100	> 100	22.3	> 100	12.4	30.7	17.2	81.4	11.2	24.3	8.76	28.5	25.4	> 100	16.2	30.7	15.7	43.5	14.2	37.2
COc1ccc(Oc2nc(Nc3ccc(N4CCOCC4)cc3)ncc2NC(=O)Nc2cc(OC)cc(OC)c2)cc1	2.64	> 33.3	4.23	20.4	1.38	5.88	1.86	12.5	1.31	5.74	3.02	14.1	5.27	14.7	1.06	4.69	1.26	5.1	5.21	32.6
Nc1nc2c(c(=O)[nH]1)N=C(COP(=O)(O)OP(=O)(O)O)CN2	–	> 100	–	> 100	–	> 100	–	> 100	–	> 100	–	> 100	–	> 100	–	> 100	–	–	–	> 100
Cc1ccc(-c2c3c(N)nc(-c4ccncc4)nc3nc3c2c(C)nn3-c2ccccc2)cc1	8.27	> 37.5	> 37.5	> 37.5	6.12	31.7	2.62	> 37.5	12.4	> 37.5	13.8	> 37.5	35.3	> 37.5	2.26	7.57	5.61	22	18.6	> 37.5
CCOC(=O)C1=C(C)NC(C)=C(C(=O)OCC)C1c1cc(Br)c(O)c(OC)c1	5.36	22.4	5.56	22	4.01	15.6	4.11	18.8	4.01	18	3.05	10.1	10.3	22.9	2.64	7.07	1.82	12.3	4.52	41.4
